Data: PubChem BioAssay (NCI)
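Interpolation was linear, between the two tested concentrations surrounding the appropriate level; five concentrations were tested over 48 hours in 96-well plates. TGI is the concentration that stops growth completely.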

Experiments:
Test in all cases: growth of human tumour cells (NCI), 48 h
786-0 renal = system: 786-0 renal
A498 renal = system: A498 renal
A549 NSCLC = system: A549 NSCLC
ACHN renal = system: ACHN renal
CAKI-1 renal = system: CAKI-1 renal
CCRF-CEM leukemia = system: CCRF-CEM leukemia
COLO 205 colon = system: COLO 205 colon
DLD-1 colon = system: DLD-1 colon
DMS 114 small cell lung = system: DMS 114 small cell lung
DMS 273 small cell lung = system: DMS 273 small cell lung
EKVX NSCLC = system: EKVX NSCLC
HCC-2998 colon = system: HCC-2998 colon
HCT-116 colon = system: HCT-116 colon
HCT-15 colon = system: HCT-15 colon
HL-60(TB) leukemia = system: HL-60(TB) leukemia
HOP-62 NSCLC = system: HOP-62 NSCLC
HOP-92 NSCLC = system: HOP-92 NSCLC
K-562 leukemia = system: K-562 leukemia
KM12 colon = system: KM12 colon
KM20L2 colon = system: KM20L2 colon
LOX IMVI melanoma = system: LOX IMVI melanoma
LXFL 529 NSCLC = system: LXFL 529 NSCLC
M14 melanoma = system: M14 melanoma
M19-MEL melanoma = system: M19-MEL melanoma
MOLT-4 leukemia = system: MOLT-4 leukemia
NCI-H460 lung = system: NCI-H460 lung
NCI-H522 lung = system: NCI-H522 lung
OVCAR-3 ovarian = system: OVCAR-3 ovarian
OVCAR-4 ovarian = system: OVCAR-4 ovarian
OVCAR-8 ovarian = system: OVCAR-8 ovarian
RPMI-8226 leukemia = system: RPMI-8226 leukemia
RXF 393 renal = system: RXF 393 renal
RXF-631 renal = system: RXF-631 renal
SF-268 CNS = system: SF-268 CNS
SF-295 CNS = system: SF-295 CNS
SK-MEL-2 melanoma = system: SK-MEL-2 melanoma
SK-MEL-28 melanoma = system: SK-MEL-28 melanoma
SK-MEL-5 melanoma = system: SK-MEL-5 melanoma
SK-OV-3 ovarian = system: SK-OV-3 ovarian
SN12C renal = system: SN12C renal
SNB-19 CNS = system: SNB-19 CNS
SNB-75 CNS = system: SNB-75 CNS
SNB-78 CNS = system: SNB-78 CNS
SR leukemia = system: SR leukemia
SW-620 colon = system: SW-620 colon
TK-10 renal = system: TK-10 renal
U251 CNS = system: U251 CNS
UACC-257 melanoma = system: UACC-257 melanoma
UACC-62 melanoma = system: UACC-62 melanoma
UO-31 renal = system: UO-31 renal
XF 498 CNS = system: XF 498 CNS
HT29 colon = system: HT29 colon
IGROV1 ovarian = system: IGROV1 ovarian
MALME-3M melanoma = system: MALME-3M melanoma
NCI-H23 lung = system: NCI-H23 lung
OVCAR-5 ovarian = system: OVCAR-5 ovarian
SF-539 CNS = system: SF-539 CNS
HOP-18 NSCLC = system: HOP-18 NSCLC
NCI-H226 lung = system: NCI-H226 lung

Measured: TGI

Cn1ccnc1Cn1cc(-c2cccc(-c3cn[nH]c3)c2)cn1
99.8 µM: EKVX NSCLC
49 µM: UACC-62 melanoma
41.9 µM: SK-OV-3 ovarian
> 100 µM: 786-0 renal | A498 renal | A549 NSCLC | ACHN renal | CAKI-1 renal | CCRF-CEM leukemia | COLO 205 colon | DLD-1 colon | DMS 114 small cell lung | DMS 273 small cell lung | HCC-2998 colon | HCT-116 colon | HCT-15 colon | HL-60(TB) leukemia | HOP-62 NSCLC | HOP-92 NSCLC | K-562 leukemia | KM12 colon | KM20L2 colon | LOX IMVI melanoma | LXFL 529 NSCLC | M14 melanoma | M19-MEL melanoma | MOLT-4 leukemia | NCI-H460 lung | NCI-H522 lung | OVCAR-3 ovarian | OVCAR-4 ovarian | OVCAR-8 ovarian | RPMI-8226 leukemia | RXF 393 renal | RXF-631 renal | SF-268 CNS | SF-295 CNS | SK-MEL-2 melanoma | SK-MEL-28 melanoma | SK-MEL-5 melanoma | SN12C renal | SNB-19 CNS | SNB-75 CNS | SNB-78 CNS | SR leukemia | SW-620 colon | TK-10 renal | U251 CNS | UACC-257 melanoma | UO-31 renal | XF 498 CNS

CC(O)C(C(=O)O)N(CC1(O)OCC(O)C(O)C1O)N=O (stereo unspecified)
> 100 µM: 786-0 renal | A498 renal | A549 NSCLC | ACHN renal | CCRF-CEM leukemia | COLO 205 colon | DLD-1 colon | DMS 114 small cell lung | DMS 273 small cell lung | EKVX NSCLC | HCC-2998 colon | HCT-116 colon | HL-60(TB) leukemia | HOP-62 NSCLC | HOP-92 NSCLC | HT29 colon | IGROV1 ovarian | K-562 leukemia | KM12 colon | KM20L2 colon | LOX IMVI melanoma | LXFL 529 NSCLC | M14 melanoma | M19-MEL melanoma | MALME-3M melanoma | MOLT-4 leukemia | NCI-H23 lung | NCI-H460 lung | NCI-H522 lung | OVCAR-3 ovarian | OVCAR-5 ovarian | OVCAR-8 ovarian | RPMI-8226 leukemia | RXF 393 renal | RXF-631 renal | SF-539 CNS | SK-MEL-2 melanoma | SK-MEL-28 melanoma | SK-OV-3 ovarian | SNB-75 CNS | SNB-78 CNS | SW-620 colon | TK-10 renal | U251 CNS | UACC-257 melanoma | UACC-62 melanoma | UO-31 renal | XF 498 CNS

O=C1CCC(=O)N1CNc1cccc(NCN2C(=O)CCC2=O)c1
49.8 µM: HL-60(TB) leukemia
46.1 µM: RPMI-8226 leukemia
28.4 µM: KM20L2 colon
> 100 µM: 786-0 renal | A549 NSCLC | ACHN renal | CCRF-CEM leukemia | COLO 205 colon | DLD-1 colon | DMS 273 small cell lung | EKVX NSCLC | HCC-2998 colon | HCT-116 colon | HCT-15 colon | HOP-62 NSCLC | HOP-92 NSCLC | HT29 colon | IGROV1 ovarian | K-562 leukemia | KM12 colon | LXFL 529 NSCLC | M14 melanoma | M19-MEL melanoma | MALME-3M melanoma | MOLT-4 leukemia | NCI-H23 lung | NCI-H460 lung | NCI-H522 lung | OVCAR-3 ovarian | OVCAR-4 ovarian | OVCAR-5 ovarian | OVCAR-8 ovarian | RXF 393 renal | RXF-631 renal | SF-268 CNS | SF-295 CNS | SF-539 CNS | SK-MEL-2 melanoma | SK-MEL-28 melanoma | SK-MEL-5 melanoma | SN12C renal | SNB-19 CNS | SNB-75 CNS | SNB-78 CNS | SW-620 colon | TK-10 renal | U251 CNS | UACC-257 melanoma | UACC-62 melanoma | UO-31 renal | XF 498 CNS

O=S1[C@H](c2ccccc2)c2c(-c3ccccc3)sc(-c3ccccc3)c2[C@@H]1c1ccccc1 (stereo partly specified)
67.9 µM: HOP-92 NSCLC
> 100 µM: 786-0 renal | A549 NSCLC | ACHN renal | CAKI-1 renal | CCRF-CEM leukemia | COLO 205 colon | DLD-1 colon | DMS 114 small cell lung | DMS 273 small cell lung | EKVX NSCLC | HCC-2998 colon | HCT-15 colon | HOP-18 NSCLC | HOP-62 NSCLC | HT29 colon | IGROV1 ovarian | K-562 leukemia | KM12 colon | KM20L2 colon | LOX IMVI melanoma | LXFL 529 NSCLC | M14 melanoma | M19-MEL melanoma | MALME-3M melanoma | MOLT-4 leukemia | NCI-H23 lung | NCI-H460 lung | OVCAR-3 ovarian | OVCAR-4 ovarian | OVCAR-5 ovarian | OVCAR-8 ovarian | RPMI-8226 leukemia | RXF 393 renal | RXF-631 renal | SF-268 CNS | SF-295 CNS | SF-539 CNS | SK-MEL-2 melanoma | SK-MEL-28 melanoma | SK-MEL-5 melanoma | SK-OV-3 ovarian | SN12C renal | SNB-19 CNS | SW-620 colon | TK-10 renal | U251 CNS | UACC-257 melanoma | UACC-62 melanoma | UO-31 renal
87.9 µM: SNB-75 CNS
27.2 µM: NCI-H522 lung
40.6 µM: HL-60(TB) leukemia

COc1ccc(Nc2nc(C#N)c(N)s2)cc1
60.3 µM: ACHN renal
89.6 µM: TK-10 renal
91.3 µM: SF-295 CNS
47.8 µM: NCI-H23 lung
89.2 µM: HL-60(TB) leukemia
77.8 µM: RPMI-8226 leukemia
> 100 µM: 786-0 renal | A549 NSCLC | CAKI-1 renal | COLO 205 colon | DLD-1 colon | DMS 273 small cell lung | HCT-116 colon | HCT-15 colon | HOP-62 NSCLC | HOP-92 NSCLC | HT29 colon | IGROV1 ovarian | K-562 leukemia | KM12 colon | KM20L2 colon | LXFL 529 NSCLC | M14 melanoma | MALME-3M melanoma | NCI-H226 lung | NCI-H460 lung | NCI-H522 lung | OVCAR-3 ovarian | OVCAR-4 ovarian | OVCAR-5 ovarian | OVCAR-8 ovarian | RXF-631 renal | SF-268 CNS | SF-539 CNS | SK-MEL-2 melanoma | SK-MEL-28 melanoma | SK-OV-3 ovarian | SN12C renal | SNB-19 CNS | SNB-75 CNS | SNB-78 CNS | SW-620 colon | U251 CNS | UACC-257 melanoma | UACC-62 melanoma | UO-31 renal
64 µM: XF 498 CNS
56.1 µM: LOX IMVI melanoma
